The record followed here is patent US20220089575A1, “FARNESOID X RECEPTOR AGONISTS AND USES THEREOF” (Metacrine, Inc., priority 2017, published 2022).

The target in the test is T1, hFXR (Homo sapiens, UniProt Q96RI1).
T1 construct: expressed in transfected cells; host or cells: CV-1 cells
T1 sequence (Q96RI1 1-486): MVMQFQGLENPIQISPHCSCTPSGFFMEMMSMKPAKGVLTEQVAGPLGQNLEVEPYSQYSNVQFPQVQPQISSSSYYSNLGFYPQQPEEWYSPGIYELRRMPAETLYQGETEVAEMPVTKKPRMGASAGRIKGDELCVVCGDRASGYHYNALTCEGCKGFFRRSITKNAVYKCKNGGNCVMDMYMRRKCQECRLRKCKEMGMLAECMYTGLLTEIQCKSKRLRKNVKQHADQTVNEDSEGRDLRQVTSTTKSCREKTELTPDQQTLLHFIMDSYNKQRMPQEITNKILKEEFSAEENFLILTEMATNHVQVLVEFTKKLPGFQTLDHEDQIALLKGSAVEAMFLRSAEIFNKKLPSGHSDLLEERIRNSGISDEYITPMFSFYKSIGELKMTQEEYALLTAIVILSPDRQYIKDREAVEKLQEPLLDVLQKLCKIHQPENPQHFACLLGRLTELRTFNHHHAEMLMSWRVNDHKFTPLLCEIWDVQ
T1 sequence (P19793 1-462 partner): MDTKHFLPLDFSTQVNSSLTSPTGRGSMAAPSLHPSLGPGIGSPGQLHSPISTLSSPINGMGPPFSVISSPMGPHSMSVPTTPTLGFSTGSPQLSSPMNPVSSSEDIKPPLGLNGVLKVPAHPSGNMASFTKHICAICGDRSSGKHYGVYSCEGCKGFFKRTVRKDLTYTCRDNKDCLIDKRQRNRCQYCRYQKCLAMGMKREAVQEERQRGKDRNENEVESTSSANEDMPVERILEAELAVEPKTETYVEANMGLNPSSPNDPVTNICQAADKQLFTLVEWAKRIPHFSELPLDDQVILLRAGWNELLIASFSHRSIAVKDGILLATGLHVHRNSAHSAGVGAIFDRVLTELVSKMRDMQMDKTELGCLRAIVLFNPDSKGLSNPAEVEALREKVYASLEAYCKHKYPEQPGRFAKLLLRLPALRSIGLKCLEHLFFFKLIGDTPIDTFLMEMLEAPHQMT
Nature of the test: In Vitro FXR Assay (TK): TK-ECRE-luc reporter in transfected CV-1 cells. It is filed as cell-based. Particulars: 18 hrs, luminescence, maximum efficacy of <25% of the Fexarmine control classified as '+'. Here is the method: CV-1 cells were seeded at a density of 2,000,000 cells in a T175 flask with DMEM+10% charcoal double-stripped FBS and incubated at 37° C. in 5% CO2 for 18 h (O/N).
After 18 h of incubation, the medium in the T175 flask was changed with fresh DMEM+10% charcoal super-stripped serum. In a polypropylene tube, 2500 μL OptiMEM (Life Technologies, Cat #31985-062) was combined with expression plasmids for hFXR, hRXR, TK-ECRE-luc and pCMX-YFP. The tube was then briefly vortexed and incubated at room temperature for 5 minutes. Transfection reagent (X-tremeGENE HP from Roche, Cat #06 366 236 001) was added to the OptiMEM/plasmid mixture vortexed and incubated at room temperature for 20 minutes. Following incubation, the transfection reagent/DNA mixture complex was added to cells in the T175 flask and the cells were incubated at 37° C. in 5% CO2 for 18 h (O/N).
Compounds were serially diluted in DMSO and added to transfected CV-1 cells. The cells were then incubated for 18 hrs. The next day cells were lysed and examined for luminescence.

The structures appear in SMILES notation. Some results are limits rather than exact numbers.

The term EC50 denotes the concentration at which the effect is half-maximal.

Turning to `COc1ccc([C@H]2CC[C@H](CN(c3cccc(-c4cnc(C5CC5)s4)c3)C(=O)[C@H]3CC[C@H](NC(=O)CN)CC3)CC2)cc1C` [Compound 31.07, trans-4-(2-Aminoacetamido)-N-(3-(2-cyclopropylthiazol-5-yl)phenyl)-N-((trans-4-(4-methoxy-3-methylphenyl)cyclohexyl)methyl) cyclohexanecarboxamide], the EC50 lay within 250 to 1000 nM. The compound `CNC(=O)O[C@H]1CC[C@H](C(=O)N(C[C@H]2CC[C@H](c3ccc(OC)c(C#N)c3)CC2)c2cccc(-c3cnn(C4CC4)c3)c2)CC1` [Compound 5.14, trans-4-(((trans-4-(3-Cyano-4-methoxyphenyl)cyclohexyl)methyl)(3-(1-cyclopropyl-1H-pyrazol-4-yl)phenyl)carbamoyl)cyclohexyl methylcarbamate] gave an EC50 of at most 250 nM. Then `CNC(=O)O[C@H]1CC[C@H](C(=O)N(C[C@H]2CC[C@H](c3ccc(OC)c(C)c3)CC2)c2cccc(-c3ccc(C4CC4)nc3)c2)CC1` [Compound 5.37, trans-4-((3-(6-Cyclopropylpyridin-3-yl)phenyl)((trans-4-(4-methoxy-3-methylphenyl)cyclohexyl)methyl)carbamoyl)cyclohexyl methylcarbamate], with at most 250 nM; and `COCCN(C)C(=O)O[C@H]1CC[C@H](C(=O)N(C[C@H]2CC[C@H](c3ccc(OC)c(C)c3)CC2)c2cccc(-c3cnn(C4CC4)c3)c2)CC1` [Compound 6.26, trans-4-((3-(1-Cyclopropyl-1H-pyrazol-4-yl)phenyl)((trans-4-(4-methoxy-3-methylphenyl)cyclohexyl)methyl)carbamoyl)cyclohexyl (2-methoxyethyl) (methyl)carbamate], with at most 250 nM; and `COc1ccc([C@H]2CC[C@H](CN(c3cc(-c4cnn(C(C)C)c4)ccn3)C(=O)[C@H]3CC[C@H](NC(C)=O)CC3)CC2)cc1C` [Compound 26.33, trans-4-Acetamido-N-(4-(1-isopropyl-1H-pyrazol-4-yl)pyridin-2-yl)-N-((trans-4-(4-methoxy-3-methylphenyl)cyclohexyl)methyl)cyclohexanecarboxamide], with at most 250 nM. Then `CNC(=O)O[C@H]1CC[C@H](C(=O)N(C[C@H]2CC[C@H](c3ccc(OC)c(C)n3)CC2)c2cccc(-c3cnn(C(C)(C)C)c3)c2)CC1` [Compound 5.20, trans-4-((3-(1-(tert-Butyl)-1H-pyrazol-4-yl)phenyl)((trans-4-(5-methoxy-6-methylpyridin-2-yl)cyclohexyl)methyl)carbamoyl)cyclohexyl methylcarbamate], with at most 250 nM; and `COc1ccc([C@H]2CC[C@H](CN(c3cc(-c4coc(C5CC5)n4)ccn3)C(=O)[C@H]3CC[C@H](NC(=O)C4CCC4)CC3)CC2)nc1C` [Compound 30.02, trans-4-(cyclobutanecarboxamido)-trans-(4-(2-cyclopropyloxazol-4-yl)pyridine-2-yl)-N-((trans-4-(5-methoxy-6-methylpyridin-2-yl)cyclohexyl)methyl) cyclohexanecarboxamide], with at most 250 nM. As for `CNC(=O)O[C@H]1CC[C@H](C(=O)N(C[C@H]2CC[C@H](c3ccc(OC)c(C)c3)CC2)c2cc(-c3cnc(C4CC4)s3)ccn2)CC1` [Compound 5.01, trans-4-((4-(2-Cyclopropylthiazol-5-yl)pyridin-2-yl)((trans-4-(4-methoxy-3-methylphenyl)cyclohexyl)methyl)carbamoyl)cyclohexyl methylcarbamate], the EC50 is at most 250 nM. With `COc1ccc([C@H]2CC[C@H](CN(c3cccc(-c4cnc(C5CC5)s4)c3)C(=O)[C@H]3CC[C@H](NS(C)(=O)=O)CC3)CC2)cc1C` [Compound 25.11, trans-N-(3-(2-Cyclopropylthiazol-5-yl)phenyl)-N-((trans-4-(4-methoxy-3-methylphenyl)cyclohexyl)methyl)-4-(methylsulfonamido) cyclohexanecarboxamide] the figure was at most 250 nM.

`CNC(=O)O[C@H]1CC[C@H](C(=O)N(C[C@H]2CC[C@H](c3ccc(OC)c(C)c3)CC2)c2cccc(-c3cnn(C4CC4)c3)c2)CC1` [Compound 1.04, trans-4-((3-(1-Cyclopropyl-1H-pyrazol-4-yl)phenyl)((trans-4-(4-methoxy-3-methylphenyl)cyclohexyl)methyl)carbamoyl)cyclohexyl methylcarbamate] registered an EC50 of at most 250 nM. With `CCc1nc(-c2ccnc(N(C[C@H]3CC[C@H](c4ccc(OC)c(C)n4)CC3)C(=O)[C@H]3CC[C@H](OC(=O)N4CC(O)C4)CC3)c2)co1` [Compound 7.109, trans-4-((4-(2-Ethyloxazol-4-yl)pyridin-2-yl)((trans-4-(5-methoxy-6-methylpyridin-2-yl)cyclohexyl)methyl)carbamoyl)cyclohexyl 3-hydroxyazetidine-1-carboxylate] the figure was at most 250 nM; with `COc1ccc([C@H]2CC[C@H](CN(c3cccc(-c4cnc(C5CC5)s4)c3)C(=O)[C@H]3CC[C@H](NC(=O)COCCN(C)C)CC3)CC2)cc1C` [Compound 32.04, trans-N-(3-(2-Cyclopropylthiazol-5-yl)phenyl)-4-(2-(2-(dimethylamino)ethoxy)acetamido)-N-((trans-4-(4-methoxy-3-methylphenyl)cyclohexyl)methyl) cyclohexanecarboxamide], at most 250 nM.

Regarding `COc1ccc([C@H]2CC[C@H](CN(c3cc(-c4cnn(C5CC5)c4)ccn3)C(=O)[C@H]3CC[C@H](C(=O)O)CC3)CC2)cc1C` [Compound 17.20, trans-4-((4-(1-Cyclopropyl-1H-pyrazol-4-yl)pyridin-2-yl)((trans-4-(4-methoxy-3-methylphenyl)cyclohexyl)methyl)carbamoyl)cyclohexanecarboxylic acid], the EC50 is at most 250 nM. Then `COc1ccc([C@H]2CC[C@H](CN(c3cc(-c4coc(C5CC5)n4)ccn3)C(=O)[C@H]3CC[C@H](OC(=O)NCC(C)O)CC3)CC2)nc1C` (stereo partly drawn) [Compound 6.72, trans-4-((4-(2-Cyclopropyloxazol-4-yl)pyridin-2-yl)((trans-4-(5-methoxy-6-methylpyridin-2-yl)cyclohexyl)methyl)carbamoyl)cyclohexyl (2-hydroxypropyl)carbamate], with at most 250 nM; and `COc1ccc([C@H]2CC[C@H](CN(c3cc(-c4cnc(C5CC5)s4)ccn3)C(=O)[C@H]3CC[C@H](CC(=O)O)CC3)CC2)cc1C#N` [Compound 20.05, 2-(trans-4-(((trans-4-(3-Cyano-4-methoxyphenyl)cyclohexyl)methyl)(4-(2-cyclopropylthiazol-5-yl)pyridin-2-yl)carbamoyl)cyclohexyl)acetic acid], with at most 250 nM; and `COc1ccc([C@H]2CC[C@H](CN(c3cccc(-c4cnn(C5CC5)c4)c3)C(=O)[C@H]3CC[C@H](CNC(C)=O)CC3)CC2)cc1C` [Compound 26.13, trans-4-(Acetamidomethyl)-N-(3-(1-cyclopropyl-1H-pyrazol-4-yl)phenyl)-N-((trans-4-(4-methoxy-3-methylphenyl)cyclohexyl)methyl) cyclohexanecarboxamide], with at most 250 nM. Then `COc1ccc([C@H]2CC[C@H](CN(c3cccc(-c4cnn(C5CC5)c4)c3)C(=O)[C@H]3CC[C@H](OC(=O)N4CC(NC(=O)OC(C)(C)C)C4)CC3)CC2)cc1C` [Compound 7.38, trans-4-((3-(1-Cyclopropyl-1H-pyrazol-4-yl)phenyl)((trans-4-(4-methoxy-3-methylphenyl)cyclohexyl)methyl)carbamoyl)cyclohexyl 3-((tert-butoxycarbonyl)amino)azetidine-1-carboxylate], with at most 250 nM. With `COc1ccc([C@H]2CC[C@H](CN(c3cc(-c4coc(C5CC5)n4)ccn3)C(=O)[C@H]3CC[C@H](OC(=O)N4CC(C5COC5)C4)CC3)CC2)nc1C` [Compound 6.84, trans-4-((4-(2-Cyclopropyloxazol-4-yl)pyridin-2-yl)((trans-4-(5-methoxy-6-methylpyridin-2-yl)cyclohexyl)methyl)carbamoyl)cyclohexyl 3-(oxetan-3-yl) azetidine-1-carboxylate] the figure was at most 250 nM.
